Data on three molecules can be found in patent US20250295674A1, “NEUROACTIVE STEROIDS FOR TREATMENT OF CNS-RELATED DISORDERS” (Sage Therapeutics, Inc., priority 2022, published 2025).

For data set [1], the system named is patients with major depressive disorder (MDD). Particulars: TEAEs: nausea/vomiting, diarrhoea, abdominal pain, dyspepsia, anorexia, dry mouth; cited from earlier work.
For data set [2], the system named is adults with MDD. Description: Phase 3 CORAL study: treatment-emergent adverse events (safety set). The data set is classed as in vivo, human. The following applies: 50 mg once daily 14 days co-initiated with ADT. As for the experimental part: This was a randomized, double-blind, parallel-group, placebo-controlled study in adults with MDD. The diagnosis of MDD was made according to Structured Clinical Interview for Diagnostic and Statistical Manual of Mental Disorders, Fifth Edition (DSM-5) Clinical Trial Version (SCID 5-CT) performed by a qualified healthcare professional.
Participants were randomized to receive blinded Compound (1) 50 mg or placebo for administration each evening from Days 1 through 14. In addition, all participants received 1 of 2 classes of ADTs: a selective serotonin reuptake inhibitor (SSRI; sertraline, escitalopram, citalopram) or a serotonin-norepinephrine reuptake inhibitor (SNRI; duloxetine or desvenlafaxine) in an open-label manner from Day 1 through the end of the study. The ADT was administered per labeled prescribing information. The investigator assigned 1 of the 5 ADTs based on clinical standard of care; the participant must not have had been previously treated with the assigned ADT within the current depressive episode and must not have had taken any ADT within 30 days prior to Day 1 (or taken fluoxetine within 60 days prior to Day 1). Randomization was stratified by ADT class (SSRI or SNRI). […]

Another data set deals with patients with MDD or PPD. The following applies: cited from earlier work.
Data set [3] concerns adults with MDD. Particulars: responders to first 14-day course of 50 mg who continued beyond Day 28; up to 1 year follow-up; cited from earlier work.

`CN(C)CCC[C@@]1(c2ccc(F)cc2)OCc2cc(C#N)ccc21` [escitalopram]: in data set [1], the “tolerability on the gastrointestinal tract among antidepressants (in words)” value is recorded as “least tolerated”.

Take `C[C@@]1(O)CC[C@H]2[C@H](CC[C@@H]3[C@@H]2CC[C@]2(C)[C@@H](C(=O)Cn4cc(C#N)cn4)CC[C@@H]32)C1` [Compound (1), 1-(2-((3R,5R,8R,9R,10S,13S,14S,17S)-3-hydroxy-3,13-dimethylhexadecahydro-1H-cyclopenta[a]phenanthren-17-yl)-2-oxoethyl)-1H-pyrazole-4-carbonitrile]: the “tolerability (in words)” value with adults with MDD [2] was “generally-well tolerated”. Further, the “onset of effect on depressive symptoms” value with patients with MDD or PPD (50 mg vs placebo, patients with MDD or PPD) is recorded as “Day 2 or 3”. The minimally effective dose in the data set with patients with MDD or PPD (previous Compound (1) studies in MDD) is listed as 30 mg. In the data set with adults with MDD [3], the “patients who received a total of 1 or 2 treatment courses” value was “approximately 80%”.

Regarding `CN[C@H]1CC[C@@H](c2ccc(Cl)c(Cl)c2)c2ccccc21` [sertraline], the “tolerability on the gastrointestinal tract among antidepressants (in words)” value in data set [1] is reported as “least tolerated”.
